What was measured:
[1] = tested on: cAMP accumulation; experiment: cAMP accumulation functional assay (agonist and antagonist mode); assay type: cell-based
[2] = target: T1, V1aR (Homo sapiens, UniProt P37288); experiment: TR-FRET (HTRF) saturation binding assay on SNAP-tag labeled receptor in cells; conditions: saturation with fluorescent ligand; mean ± SEM of three independent experiments in triplicate; read-out: Binding, HTRF (Kd, nM) V1a
T1 construct: expressed in transfected cells; host or cells: HEK 293T (printed for the general protocol, whose plasmid sentence names only the V2 receptor)
Protocol: (§1) These assays were performed as described in Zwier et al (Journal of Biomolecular Screening 2010, 15, 1248-1259). Briefly, HEK 293T cells were cultivated in DMEM medium supplemented with 10% foetal calf serum (FCS) and 1% penicillin/streptomycin antibiotics. Confluent cells were dissociated and electroporated with plasmid DNA coding for the V2 receptor fused to the SNAP-tag suicide enzyme. Transfected cells were then plated in black 96-well plates previously coated with poly-ornithine (diluted at 0.1 mg.mL^-1 in sterile water, incubated 30 min at 37°C, washed with sterile PBS). Plates were incubated in supplemented DMEM medium for 48h à 37°C, […] and 5% CO2. Expressed receptors fused to SNAPtag were then labeled with fluorescent substrates, either with a donor (SNAP-Lumi4-Tb) or an acceptor (SNAP-RED) at respectively 100 or 300 nM in 100 µL of Tag-lite® labeling medium, for 1 h at 37 °C. Cells were then washed 3 times in Tag-lite medium and then incubated with the fluorescent ligands. For saturation assays, increasing concentrations of fluorescent ligands were diluted in 100 µL of Tag-lite medium. For competition assays, a fixed concentration of fluorescent ligand (typically 20 nM) was mixed with an increasing concentration of cold competitor ligand (in this case AVP) in Tag-lite medium. After overnight incubation at 4 °C (to prevent any internalization phenomenon), plates were read in an HTRF®-compatible multi-well plate reader with a classic HTRF® protocol (excitation at 340 nm, donor emission measured at 620 nm and acceptor emission at 665 nm, 50 µs delay, 500 µs integration).
(§2) Fluorescent compounds 21 to 24 were involved in the development of a TR-FRET based assay for both V1aR and OTR. Such technique usually offers a higher signal-to-noise ratio than classic FRET because of the long-lasting fluorescence of the lanthanide cryptate. TR-FRET based saturation experiments with fluorescent compounds 21 to 24 were performed on V1a, OT and V2 receptors labeled with the SNAP-tag® approach: cells expressing a receptor of interest fused to SNAP-tag are incubated in the presence of a fluorescent substrate to label the receptor. Cells were then incubated in the presence of increasing concentrations of a fluorescent ligand. Fluorophores of the SNAP-tag substrates and of the ligands are chosen to be compatible with time-resolved FRET. SNAP-tagged receptors were labeled either with a Lumi4-Tb donor (SNAP-Lumi4-Tb) or d2 acceptor (SNAP-red) depending on the nature of the ligands, either acceptor (21, 22) or donor (23, 24). Saturation curves were obtained when plotting specific FRET signal as a function of fluorescent compounds concentration; non-specific binding was determined in the presence of an excess of the unlabeled corresponding ligands (10 µM) (Figure 1).

[3] = target: T2, V2 receptor (Homo sapiens, UniProt P30518); experiment: as above; conditions: saturation with fluorescent ligand; mean ± SEM of three independent experiments in triplicate
T2 construct: expressed in transfected cells; host or cells: HEK 293T
Protocol: as §1, §2

[4] = target: T3, OTR (Homo sapiens, UniProt P30559); experiment: as above; conditions: saturation with fluorescent ligand; mean ± SEM of three independent experiments in triplicate; read-out: Binding, HTRF (Kd, nM) OT
T3 construct: expressed in transfected cells; host or cells: HEK 293T (printed for the general protocol, whose plasmid sentence names only the V2 receptor)
T3 sequence (P30559 1-389): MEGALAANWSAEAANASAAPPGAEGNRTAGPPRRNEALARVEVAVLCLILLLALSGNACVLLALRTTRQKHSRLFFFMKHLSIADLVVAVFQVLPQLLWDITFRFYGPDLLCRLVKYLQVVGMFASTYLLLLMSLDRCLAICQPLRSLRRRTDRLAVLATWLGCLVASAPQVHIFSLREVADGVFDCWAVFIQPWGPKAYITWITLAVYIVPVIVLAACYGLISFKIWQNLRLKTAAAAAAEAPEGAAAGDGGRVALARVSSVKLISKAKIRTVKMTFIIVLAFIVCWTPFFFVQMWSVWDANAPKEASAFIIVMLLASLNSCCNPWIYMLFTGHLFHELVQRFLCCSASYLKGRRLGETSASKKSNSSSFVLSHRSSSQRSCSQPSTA
Protocol: as §1, §2

[5] = tested on: cAMP accumulation; experiment: cAMP accumulation functional assay (agonist and antagonist mode); assay type: cell-based; remark: listed apart in the source
[6] = cell incubation with fluorescent compound at a concentration of 100-fold Ki

T1 sequence (P37288 whole entry): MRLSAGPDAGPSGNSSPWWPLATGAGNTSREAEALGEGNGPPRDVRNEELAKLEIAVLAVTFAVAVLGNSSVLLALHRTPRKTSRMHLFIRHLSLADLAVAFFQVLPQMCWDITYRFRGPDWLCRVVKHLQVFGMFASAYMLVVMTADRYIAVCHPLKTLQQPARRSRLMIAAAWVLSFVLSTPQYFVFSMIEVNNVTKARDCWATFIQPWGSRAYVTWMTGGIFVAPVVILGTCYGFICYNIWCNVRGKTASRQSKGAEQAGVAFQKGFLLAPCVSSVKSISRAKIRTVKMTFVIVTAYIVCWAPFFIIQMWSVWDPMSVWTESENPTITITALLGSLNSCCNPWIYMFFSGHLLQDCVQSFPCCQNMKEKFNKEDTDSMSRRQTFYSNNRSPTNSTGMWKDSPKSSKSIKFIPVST
T2 sequence (P30518 whole entry): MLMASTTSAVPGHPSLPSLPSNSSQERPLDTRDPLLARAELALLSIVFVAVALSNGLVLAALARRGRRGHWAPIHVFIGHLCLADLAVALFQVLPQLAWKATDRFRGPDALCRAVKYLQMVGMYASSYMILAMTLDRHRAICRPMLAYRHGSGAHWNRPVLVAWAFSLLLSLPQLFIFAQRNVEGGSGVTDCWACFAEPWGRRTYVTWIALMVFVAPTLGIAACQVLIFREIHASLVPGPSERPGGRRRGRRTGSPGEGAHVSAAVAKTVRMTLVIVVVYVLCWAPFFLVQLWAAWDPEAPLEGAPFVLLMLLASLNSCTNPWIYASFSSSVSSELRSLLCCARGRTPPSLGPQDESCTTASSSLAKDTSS

Row | Compound | EC50 ([1]; cAMP accumulation, agonist potency, read-out: Kact) | cyclic adenosine monophosphate (cAMP) accumulation (intrinsic agonist activity) [1, 6] | Kd [2] | Kd [3] | Kd [4] | cyclic adenosine monophosphate (cAMP) accumulation (intrinsic agonist activity) [5, 6] | inhibition of AVP-induced cAMP accumulation ([5]; dose-dependent, antagonist mode)
1 | arginine vasopressin [AVP] | 0.29 nM | full agonist properties | – | – | – | – | –
2 | CCN1C(=CC=CC=CC2=[N+](CC)c3ccc(S(=O)(=O)[O-])cc3C2(C)C)C(C)(CCCC(=O)NCCOCCOCCOCCN2CCN(CCCCCCOc3cccc(C)c3-n3c(C)nnc3-c3ccc(-c4ccccc4)cc3)CC2)c2cc(S(=O)(=O)O)ccc21 (stereo not shown) [Compound 22] | – | – | 10 ± 2 nM | > 1000 nM | 11 ± 2 nM | – | –
3 | CCN1C(=CC=CC=CC2=[N+](CC)c3ccc(S(=O)(=O)[O-])cc3C2(C)C)C(C)(CCCC(=O)NCCOCCN2CCN(CCCCCCOc3cccc(C)c3-n3c(C)nnc3-c3ccc(-c4ccccc4)cc3)CC2)c2cc(S(=O)(=O)O)ccc21 (stereo not shown) [Compound 21] | – | – | 6 ± 2 nM | > 1000 nM | 7 ± 2 nM | No significant increase in accumulation of second messengers | fully inhibited
